From patent US20240408130A1, “Combination of Silicon and Magnesium for the Prevention and Treatment of Muscle Cramps” (Bio Minerals NV, priority 2019, published 2024)
Several values for one entry are separate records, joined by “and”; a condition that tells them apart may be missing. Identical values can stand only once. Counter-ions that a name gives are not always drawn.

Assays:
[1] = tested on: muscle cramps; conditions: cited from earlier work
[2] = tested on: muscle cramps; assay: Cross-over trial in patients with frequent muscle cramps, cramp frequency recorded daily in a diary (Example 8); format: in vivo, human
Experimental: Female and male patients (age 33 to 86 years) experiencing frequent muscle cramps participated in a cross-over trial. The design of the cross-over trial is as follows: • Period 1:2 weeks orally 400 mg Mg/day (magnesium citrate), • Period 2:2 weeks orally 400 mg Mg/day+10 mg Si/day (magnesium citrate and choline-stabilized orthosilicic acid), • Period 3:2 weeks orally 200 mg Mg/day+5 mg Si/day (magnesium citrate and choline-stabilized orthosilicic acid). • Parameters: patients recorded the frequency of cramps daily in a diary.

[3] = tested on: muscle cramps; assay: Comparative trial in 11 patients with frequent muscle cramps, cramp frequency recorded daily in a diary (Example 9); format: in vivo, human
Experimental: Seven female and 4 male patients (age 27 to 86 years, mean age 56 years) experiencing frequent muscle cramps participated in a comparative trial with the following design: • Period 1: During 1 week 11 patients either • (a) continued with their oral magnesium supplement (6 patients), or • (b) changed from their oral magnesium treatment (2 patients) to an oral magnesium supplement of 180 mg Mg/day (magnesium malate), or • (c) changed from “no magnesium” pretreatment (3 patients) to an oral magnesium supplement of 180 mg Mg/day (magnesium malate). • One patient had taken quinine sulfate prior to period 1. • Period 2: all patients (n=11) took 4 weeks 360 mg Mg/day (magnesium malate)+10 mg Si/day (choline-stabilized orthosilicic acid, ch-OSA®) • Parameters: patients recorded daily the frequency of cramps in a diary.

[4] = tested on: muscle cramps; assay: Case reports of patients with muscle cramps given magnesium alone or Biosil plus Promagnor (Examples 1-7); format: in vivo, human; conditions: patient, recurrent skeletal muscle cramps for 23 years; magnesium salt alone, 450 mg per day
Text: A patient had recurrent muscle cramps during a period of 23 years. Muscle cramps occurred in skeletal muscles in hands, lower arms and legs, as well as in intercostal muscles. […] Muscle cramps occurred during the day as well as during the night, at a frequency of several cramps per day. As a consequence, the muscle cramps prohibited working as a doctor and further prohibited swimming or any other sport. […] This ineffective result is consistent with the conclusions of Garrison (supra) and Young (supra), that magnesium supplementation is not effective in the treatment of muscle cramps.
The patient thereafter switched to a therapy comprising on a daily basis 10 mg stabilized silicic acid, wherein the silicic acid was in the form of orthosilicic acid and/or oligomers. The stabilizer was choline, which was administered at a daily dose of 200 mg. This combination is sold as Biosil® and is commercially available from Bio Minerals N.V., Destelbergen, Belgium. Use was made of the solid form of Biosil®. Two capsules per day were administered. The magnesium dose was 450 mg, and was in the form of magnesium phosphate, magnesium citrate, or magnesium bicarbonate. It was a dosage form of magnesium commercially supplied as Promagnor™ by Merck Consumer Healthcare nv, Overijse, Belgium. […]

## O=S(=O)([O-])[O-].[Mg+2] [magnesium sulphate]
[1]; Class II study, 300 mg dose, versus placebo
  effect on number of cramps, severity, duration, sleep disturbance: not superior to placebo for number of cramps, severity, duration or sleep disturbance

## COc1ccc([C@@H]2Sc3ccccc3N(CCN(C)C)C(=O)[C@@H]2OC(C)=O)cc1 [diltiazem hydrochloride]
[1]; Class II study
  effect on intensity of cramps: no effect on the intensity of cramps

## magnesium citrate [Mg]
[2]; A: 2 weeks 400 mg Mg/day orally (magnesium citrate), patients 1-6, one value per patient
  cramps/day, individual patients: 0.43 cramps/day (2×) and 1.07 cramps/day and 0.36 cramps/day and 1.79 cramps/day and 0.5 cramps/day
[2]; A: 2 weeks 400 mg Mg/day orally, mean of 6 patients
  cramps/day, Mean: 0.76 cramps/day
[1]; Class II study, 900 mg
  effect on number of cramps: could not conclude that there was a significant improvement in the number of cramps

## CCN(CC)CCOC(=O)C(Cc1cccc2ccccc12)CC1CCCO1 (stereo not drawn) [naftidrofuryl oxalate]
[1]; literature study
  effect on cramps and sleep disturbance: no effect on the mean number of cramps, number of nights with cramps or sleep disturbance

## C=C[C@H]1C[N@@]2CC[C@H]1C[C@H]2[C@H](O)c1ccnc2ccc(OC)cc12 [quinine]
[1]; reported in the literature (Katzberg 2010; FDA alert 2012)
  side effects: common and serious side effects
[1]; systematic reviews and randomized clinical trials (Young 2015), versus placebo
  effect on idiopathic leg cramps: may reduce the frequency of idiopathic leg cramps at night compared to placebo

## NCC1(CC(=O)O)CCCCC1 [Gabapentin]
[1]; Class I clinical study, versus placebo
  effect on symptom scores: no difference was found between treatment and placebo with respect to any symptom score

## [Mg] [magnesium]
[2]; magnesium alone versus combination with bioavailable silicon supplement, Example 8
  conclusion on frequency of cramps: not effective in reducing the frequency of cramps compared to the combination
[3]; Week 1: own oral magnesium supplement or 180 mg Mg/day (magnesium malate), n=11
  Number of cramps Mean ± SE: 18.9 ± 7.4^
[3]; monotherapy of oral magnesium, Example 9
  conclusion on relief of muscle cramps: not effective in relieving muscle cramps
[4]
  effect on recurrent muscle cramps: not effective and did not provide any relief or inhibition of the muscle cramps
[1]; Garrison 2012 Cochrane review of seven trials, older adults with skeletal muscle cramps
  cramp prophylaxis: unlikely that magnesium supplementation provides a clinically meaningful cramp prophylaxis to older adults
[1]; Leal de Araújo 2020, oral magnesium supplementation during pregnancy
  effect on leg cramps in pregnancy: did not reduce the occurrence and frequency of episodes of leg cramps
